This is an account of results in patent publication EP0392802A2, “Preparation of urea analogues and their use in bronchial, cerebrovascular and neuronal disorders” (Beecham Group p.l.c., priority 1989, dated 1990).

The test system of the assay is guinea pig tracheal spiral preparations. The assay can be described thus: Bronchodilation in vitro; guinea pig tracheal spiral preparations (relaxation of resting tension relative to isoprenaline). The conditions noted are these: fall in tension as percentage of total relaxation evoked by 10⁻³M isoprenaline; cumulative dosing 10⁻⁸-2x10⁻⁵M; resting tension 2g; krebs solution at 37°C; read-out: IC₅₀. How it is done: Male guinea pigs (300-600g) were stunned by a blow to the head and bled from the carotid artery. The trachea was exposed, dissected free of connective tissue, and transferred to oxygenated krebs solution at 37 °C. Next, spirals (2 per trachea) were prepared by cutting the whole trachea spirally along its longitudinal axis and then dividing this spiral lengthwise. Each preparation was mounted, using silk thread, in a 10ml organ bath filled with krebs solution at 37 °C and bubbled with 5% CO₂ with O₂. The resting tension of the preparations was set at 2g and changes in muscle tension were monitored isometrically by means of a UFI (2oz) force and displacement transducer (Ormed Ltd) connected to a Linseis pen recorder. All preparations were allowed to equilibrate for 60 minutes. During this equilibration period the preparations were washed by upward displacement at 15 minute intervals and, if necessary, the resting tension was readjusted to 2g using a mechanical micromanipulator system.
Once a steady resting tension had been obtained, the preparations were dosed cumulatively with the test compound (10⁻⁸-2x10⁻⁵M), and finally a maximum relaxation achieved by addition of 10⁻³M isoprenaline.
The fall in tension evoked by the test compound was expressed as a percentage of the total relaxation evoked in the presence of 10⁻³M isoprenaline. […]

For the compound `CC(NC(=S)Nc1ccc(F)cc1)C(C)(C)C` (racemic) [Example 3, (±)-N-4-Fluorophenyl-N′-1,2,2-trimethylprop-1-ylthiourea], the IC50 was 5.9 µM. `CC(NC(=NC#N)Nc1ccc(C#N)cc1)C(C)(C)C` (racemic) [Example 4, (±)-N˝-Cyano-N-4-cyanophenyl-N′-1,2,2-trimethylprop-1-ylquanidine]: the IC50 was determined as 3 µM.
